Publication PMC9033836, “Determination of key residues in MRGPRX2 to enhance pseudo-allergic reactions induced by fluoroquinolones” (Scientific Reports, 2022)
Substitutions are numbered along the chain they refer to.

Assays:
Test in all cases: intracellular calcium mobilisation (FLIPR Tetra), transiently transfected HEK293
Type in all cases: cell-based
[1] = target: T1, dog MRGPRX2 (Canis lupus, UniProt A0A4Y5P885); settings: read-out: EC50 (μg/mL) ± SD (P value) / Dog / Wild type (converted)
T1 construct: gene in pcDNA3.1(+), transiently transfected HEK293 cells (JCRB)
T1 sequence (A0A4Y5P885 1-417): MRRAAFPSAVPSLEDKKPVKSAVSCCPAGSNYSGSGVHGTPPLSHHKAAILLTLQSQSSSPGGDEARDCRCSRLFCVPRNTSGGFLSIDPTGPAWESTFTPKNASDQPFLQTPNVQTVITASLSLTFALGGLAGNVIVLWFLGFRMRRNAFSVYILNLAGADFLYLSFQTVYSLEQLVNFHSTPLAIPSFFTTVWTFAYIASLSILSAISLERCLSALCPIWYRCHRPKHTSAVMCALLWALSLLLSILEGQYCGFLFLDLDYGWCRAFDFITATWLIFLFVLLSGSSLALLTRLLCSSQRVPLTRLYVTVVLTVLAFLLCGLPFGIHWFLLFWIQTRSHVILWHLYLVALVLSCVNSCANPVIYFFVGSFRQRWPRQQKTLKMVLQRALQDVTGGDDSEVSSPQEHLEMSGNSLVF
Description: intracellular calcium mobilisation (FLIPR Tetra), transiently transfected HEK293 on dog MRGPRX2

[2] = target: T2, human MRGPRX2 (Homo sapiens, UniProt Q96LB1); settings: read-out: EC50 (μg/mL) ± SD (P value) / Human / Wild type (converted)
T2 construct: full-length gene in pcDNA3.1(+), transiently transfected HEK293 cells (JCRB)
T2 sequence (Q96LB1 1-330): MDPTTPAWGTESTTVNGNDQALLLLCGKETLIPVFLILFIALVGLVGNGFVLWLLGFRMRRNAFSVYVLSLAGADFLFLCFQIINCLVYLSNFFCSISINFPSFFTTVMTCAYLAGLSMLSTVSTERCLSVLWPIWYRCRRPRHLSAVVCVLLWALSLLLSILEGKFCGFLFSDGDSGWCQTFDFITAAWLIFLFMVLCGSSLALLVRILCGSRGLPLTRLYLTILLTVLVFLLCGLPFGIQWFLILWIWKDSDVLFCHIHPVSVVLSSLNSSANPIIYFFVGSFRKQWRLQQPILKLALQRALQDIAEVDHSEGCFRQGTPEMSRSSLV
Description: (§1) intracellular calcium mobilisation (FLIPR Tetra), transiently transfected HEK293 on human MRGPRX2

[3] = target: T3, human MRGPRX2 (Homo sapiens, UniProt Q96LB1, F78Y/M109W); settings: read-out: EC50 (μg/mL) ± SD (P value) / Human / F78Y/M109W (converted)
T3 construct: full-length gene in pcDNA3.1(+), transiently transfected HEK293 cells (JCRB)
T3 sequence (Q96LB1 1-330 F78Y/M109W): T2 sequence (Q96LB1 1-330) with F78Y, M109W
Description: as §1

[4] = target: T4, human MRGPRX2 (Homo sapiens, UniProt Q96LB1, F78Y); settings: read-out: EC50 (μg/mL) ± SD (P value) / Human / F78Y (converted)
T4 construct: full-length gene in pcDNA3.1(+), transiently transfected HEK293 cells (JCRB)
T4 sequence (Q96LB1 1-330 F78Y): T2 sequence (Q96LB1 1-330) with F78Y
Description: as §1

[5] = target: T5, human MRGPRX2 (Homo sapiens, UniProt Q96LB1, M109W); settings: read-out: EC50 (μg/mL) ± SD (P value) / Human / M109W (converted)
T5 construct: full-length gene in pcDNA3.1(+), transiently transfected HEK293 cells (JCRB)
T5 sequence (Q96LB1 1-330 M109W): T2 sequence (Q96LB1 1-330) with M109W
Description: as §1

[6] = target: T2, human MRGPRX2; settings: highest concentration of fluoroquinolones 1000 µg/mL; HBSS pH 7.4, 20 mM HEPES, 0.05% BSA
[7] = target: T1, dog MRGPRX2; settings: highest concentration of fluoroquinolones 1000 µg/mL; HBSS pH 7.4, 20 mM HEPES, 0.05% BSA

| EC50 [1] | EC50 [2] | EC50 [3] | EC50 [4] | EC50 [5] | Compound | intracellular calcium mobilisation (FLIPR Tetra), transiently transfected HEK293 [6] | intracellular calcium mobilisation (FLIPR Tetra), transiently transfected HEK293 [7] |
| --- | --- | --- | --- | --- | --- | --- | --- |
| 36.2 µM | – | – | – | – | O=C(O)c1cn(C2CC2)c2cc(N3CCNCC3)c(F)cc2c1=O [CPFX] | – | – |
| 258 µM | 959 µM | 197 µM | 666 µM | 266 µM | COc1c(N2CCNC(C)C2)c(F)cc2c(=O)c(C(=O)O)cn(C3CC3)c12 (stereo not shown) [GFLX] | – | – |
| 249 µM | 1800 µM | 498 µM | 1380 µM | 581 µM | C[C@H]1COc2c(N3CCN(C)CC3)c(F)cc3c(=O)c(C(=O)O)cn1c23 [LVFX] | – | – |
| – | – | – | – | – | C[C@H]1COc2c(C3(N)CC3)c(F)cc3c(=O)c(C(=O)O)cn1c23 [PZFX] | PZFX ... did not induce intracellular calcium mobilisation in any of the cells | PZFX ... did not induce intracellular calcium mobilisation in any of the cells |
